Assays:
Mus musculus [1] = experiment: Inhibition of 11beta-HSD1 in ICR mouse assessed as conversion of [3H]cortisone to [3H]cortisol at 10 mg/kg, po after 4 hrs by scintillation counting; format: functional
[2] = molecular target: T1, Nuclear receptor subfamily 1 group I member 2 (Homo sapiens, UniProt O75469); experiment: Agonist activity at PXR; format: functional
T1 sequence (O75469 whole entry): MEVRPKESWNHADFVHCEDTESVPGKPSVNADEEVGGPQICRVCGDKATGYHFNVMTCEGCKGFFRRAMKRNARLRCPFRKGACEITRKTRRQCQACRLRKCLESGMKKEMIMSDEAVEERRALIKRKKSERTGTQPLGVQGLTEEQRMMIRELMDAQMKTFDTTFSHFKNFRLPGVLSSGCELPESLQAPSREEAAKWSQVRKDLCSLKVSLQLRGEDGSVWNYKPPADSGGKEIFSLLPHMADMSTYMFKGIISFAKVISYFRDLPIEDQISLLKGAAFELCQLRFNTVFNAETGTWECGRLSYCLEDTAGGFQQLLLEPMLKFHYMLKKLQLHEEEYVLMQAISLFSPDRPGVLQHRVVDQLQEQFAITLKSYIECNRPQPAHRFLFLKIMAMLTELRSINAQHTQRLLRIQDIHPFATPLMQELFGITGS

[3] = molecular target: T1, Nuclear receptor subfamily 1 group I member 2; experiment: Agonist activity at PXR at 10 uM; format: functional
[4] = molecular target: 11-beta-hydroxysteroid dehydrogenase 1 (Homo sapiens, UniProt P28845); experiment: Inhibition of human 11beta-HSD1 expressed in CHO-K1 cells assessed as conversion of [3H]cortisone to [3H]cortisol by scintillation counting; format: cell-based
[5] = molecular target: 11-beta-hydroxysteroid dehydrogenase 1 (Mus musculus, UniProt P50172); experiment: Inhibition of mouse 11beta-HSD1 expressed in CHO-K1 cells assessed as conversion of [3H]cortisone to [3H]cortisol by scintillation counting; format: cell-based
Mus musculus [6] = experiment: Inhibition of 11beta-HSD1 in ICR mouse assessed as conversion of [3H]cortisone to [3H]cortisol at 10 mg/kg, po after 16 hrs by scintillation counting; format: functional
[7] = molecular target: T2, 11-beta-hydroxysteroid dehydrogenase type 2 (Homo sapiens, UniProt P80365); experiment: Inhibition of human 11beta-HSD2
T2 sequence (P80365 whole entry): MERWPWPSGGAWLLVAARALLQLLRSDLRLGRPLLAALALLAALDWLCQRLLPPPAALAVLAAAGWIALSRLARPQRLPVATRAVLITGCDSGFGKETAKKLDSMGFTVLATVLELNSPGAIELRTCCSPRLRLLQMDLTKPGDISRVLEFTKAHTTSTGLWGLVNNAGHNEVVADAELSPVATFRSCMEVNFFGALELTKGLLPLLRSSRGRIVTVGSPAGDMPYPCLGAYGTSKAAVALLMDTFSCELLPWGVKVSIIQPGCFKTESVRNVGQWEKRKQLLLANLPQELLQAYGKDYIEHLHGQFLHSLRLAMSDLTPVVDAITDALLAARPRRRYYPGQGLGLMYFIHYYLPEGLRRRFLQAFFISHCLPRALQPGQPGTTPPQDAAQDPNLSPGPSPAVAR

[8] = molecular target: T3, 11-beta-hydroxysteroid dehydrogenase type 2 (Mus musculus, UniProt P51661); experiment: Inhibition of mouse 11beta-HSD2
T3 sequence (P51661 whole entry): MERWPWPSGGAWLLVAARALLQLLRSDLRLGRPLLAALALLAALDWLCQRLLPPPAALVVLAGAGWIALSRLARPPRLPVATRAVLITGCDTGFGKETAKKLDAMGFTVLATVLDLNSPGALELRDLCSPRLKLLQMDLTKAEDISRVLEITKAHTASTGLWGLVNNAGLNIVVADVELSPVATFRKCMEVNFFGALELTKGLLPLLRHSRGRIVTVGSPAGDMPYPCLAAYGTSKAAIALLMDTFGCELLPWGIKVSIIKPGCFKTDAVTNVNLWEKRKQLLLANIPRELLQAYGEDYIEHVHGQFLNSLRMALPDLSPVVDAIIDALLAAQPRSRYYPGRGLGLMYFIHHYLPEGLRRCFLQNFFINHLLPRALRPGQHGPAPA

Chain of 11-beta-hydroxysteroid dehydrogenase 1 (Mus musculus, UniProt P50172) (P50172 whole entry): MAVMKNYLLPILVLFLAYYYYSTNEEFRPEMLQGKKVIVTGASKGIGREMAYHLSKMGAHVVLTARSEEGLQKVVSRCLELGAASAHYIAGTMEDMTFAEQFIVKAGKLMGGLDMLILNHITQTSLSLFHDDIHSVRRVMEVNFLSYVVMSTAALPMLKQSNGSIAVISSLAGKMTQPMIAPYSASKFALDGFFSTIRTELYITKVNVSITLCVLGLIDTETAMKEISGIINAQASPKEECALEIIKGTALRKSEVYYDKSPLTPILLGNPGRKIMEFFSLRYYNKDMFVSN
Chain of 11-beta-hydroxysteroid dehydrogenase 1 (Homo sapiens, UniProt P28845) (P28845 whole entry): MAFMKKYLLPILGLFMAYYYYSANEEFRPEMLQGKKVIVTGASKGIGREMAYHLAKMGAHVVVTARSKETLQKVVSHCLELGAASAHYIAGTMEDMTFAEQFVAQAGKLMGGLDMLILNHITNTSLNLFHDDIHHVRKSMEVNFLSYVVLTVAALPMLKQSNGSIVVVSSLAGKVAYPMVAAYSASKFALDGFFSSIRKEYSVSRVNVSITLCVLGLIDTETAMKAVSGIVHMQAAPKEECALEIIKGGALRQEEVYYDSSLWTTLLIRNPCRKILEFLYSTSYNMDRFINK

Structure (SMILES)	inhibition in vivo at 10 mg/kg (Mus musculus [1]) [%]	EC50 [2] [nM]	Activity [3] [%]	IC50 [4] [nM]	IC50 [5] [nM]	inhibition in vivo at 10 mg/kg (Mus musculus [6]) [%]	IC50 [7] [nM]	IC50 [8] [nM]
Cn1c(-c2ccc(NC(=O)c3cnccn3)cc2Cl)nnc1C1(c2ccc(Cl)cc2)CCC1	82	> 30000	33	2.6	1.9	46	> 4000	> 4000
Cn1c(-c2ccc(-c3ccc(Cl)nn3)cc2)nnc1C1(c2ccc(Cl)cc2)CCC1	40	> 30000	14	1.5	1.5	-7	> 4000	> 4000
CCNC(=O)c1ccc(-c2nnc(C3(c4ccc(Cl)cc4)CCC3)n2C)cc1	71	> 30000	18	69	7.8	0	> 4000	> 4000
Cn1c(-c2ccc(-c3cnccn3)cc2F)nnc1C1(c2ccc(Cl)cc2)CCC1	91	4800	74	2.8	1.7	81	> 4000	> 4000
Cn1c(-c2ccc(C(N)=O)cc2Cl)nnc1C1(c2ccc(Cl)cc2)CCC1	57	> 30000	16	< 1	1	12	> 4000	> 4000
Cn1c(-c2ccc(-c3cncnc3)cc2)nnc1C1(c2ccc(Cl)cc2)CCC1	46	> 30000	7	1.5	2.6	-4	> 4000	> 4000
CC(=O)Nc1ccc(-c2nnc(C3(c4ccc(Cl)cc4)CCC3)n2C)cc1	59	> 30000	21	5.8	9.1	10	> 4000	> 4000
Cn1c(-c2ccc(C(=O)N3CCCC3)cc2)nnc1C1(c2ccc(Cl)cc2)CCC1	24	> 30000	10	650	130	0	> 4000	> 4000
Cn1c(-c2ccc(-c3cc(=O)[nH]cn3)cc2)nnc1C1(c2ccc(Cl)cc2)CCC1	26	> 30000	15	8.8	2.8	14	> 4000	> 4000
Cn1c(-c2ccc(C(=O)N3CCOCC3)cc2)nnc1C1(c2ccc(Cl)cc2)CCC1		> 30000	16	560	200		> 4000	> 4000
Cn1c(-c2ccc(-c3ccsc3)cc2)nnc1C1(c2ccc(Cl)cc2)CCC1	81	3000	78		< 1	33	1300	
Cn1c(-c2ccc(N)cc2Cl)nnc1C1(c2ccc(Cl)cc2)CCC1	90	> 30000	35		< 1	38	2300	
Clc1ccc(C2(c3nnc4n3CCCCCC4)CCC2)cc1		1600	100					
Cn1c(-c2ccc(-c3cnoc3)cc2)nnc1C1(c2ccc(Cl)cc2)CCC1		23000	29	1.1	4.1		> 4000	> 4000
Cn1c(-c2ccc(-c3ccccc3)cc2)nnc1C1(c2ccc(Cl)cc2)CCC1		1700	90					
Cn1c(-c2ccc(-c3cnccn3)cc2C(N)=O)nnc1C1(c2ccc(Cl)cc2)CCC1		> 30000	4	120	68		> 4000	> 4000
Cn1c(-c2ccc(-c3cnc(O)nc3)cc2)nnc1C1(c2ccc(Cl)cc2)CCC1		> 30000	9	1.2	2.9		> 4000	> 4000
Cn1c(-c2ccc(-c3ccc(N)nn3)cc2)nnc1C1(c2ccc(Cl)cc2)CCC1		> 30000	12	4.8	1.1		> 4000	> 4000
Cn1c(-c2ccc(-c3cccnc3)cc2Cl)nnc1C1(c2ccc(Cl)cc2)CCC1			35				> 4000	
Cn1c(-c2ccc(C(=O)NC3CCC3)cc2)nnc1C1(c2ccc(Cl)cc2)CCC1		> 30000	4	470	6.6		> 4000	> 4000
Cn1c(-c2ccc(C(=O)NC3CC3)cc2)nnc1C1(c2ccc(Cl)cc2)CCC1		> 30000	14	300	11		> 4000	> 4000
Cn1c(-c2ccc(C(=O)N3CCC3)cc2)nnc1C1(c2ccc(Cl)cc2)CCC1		> 30000	10	250	62		> 4000	> 4000
Cn1c(-c2ccc(N)cc2)nnc1C1(c2ccc(Cl)cc2)CCC1	77	> 30000	22		15	12	3100	
